Results reported in patent US20100305183A1, “METHOD AND COMPOSITION FOR REDUCING REPERFUSION INJURY” (Adelaide Research & Innovation Pty Ltd, priority 2006, published 2010).

Key:
Type in all cases: in vivo
[1] = test system: rats subject to ischaemia/reperfusion injury; assay: Rotarod test of motor function after reversible stroke and reperfusion; settings: 2 h occlusion, over ensuing 7 days, FIG. 4
Procedure: Anaesthetised rats were subject to 2 hours reversible stroke using the intraluminal thread model of middle cerebral artery occlusion. At 2 hours, reperfusion was initiated by withdrawing the thread and following a further 2 hours, N-acetyl-L-tryptophan (10^-5 mol/kg) or […],060 (1 mg/kg) was administered by intravenous injection.

blood brain barrier [2] = assay: Evan's blue leakage into brain tissue following injury; settings: dose-dependent, FIG. 1
Excerpt: We chose to use the compound N-acetyl-L-tryptophan (NAT).

blood brain barrier [3] = assay: Blood brain barrier permeability induced by injection of tPA in naïve (uninjured) animal; settings: FIG. 2
[4] = test system: rats subject to ischaemia/reperfusion injury; assay: Oedema after reversible stroke (intraluminal thread model of middle cerebral artery occlusion) and reperfusion; settings: 2 h occlusion, 10^−5 mol/kg intravenous 2 h after reperfusion, FIG. 3
Procedure: To this end, anaesthetised rats were subject to 2 hours reversible stroke using the intraluminal thread model of middle cerebral artery occlusion. At 2 hours, reperfusion was initiated by withdrawing the thread and following a further 2 hours, N-acetyl-L-tryptophan (10^−5 mol/kg) was administered by intravenous injection. There was a significant increase in oedema at 24 h following ischaemia/reperfusion injury.

[5] = test system: IL-1β, IL-6 and TNFα mRNA; assay: RT-PCR of inflammatory cytokine mRNA in brain tissue after hypoxia and hypotension; settings: rats, 10^−5 mol/kg intravenous after hypoxia and hypotension, 6 hours after injury, normalised to rpL32
Procedure: In order to induce the inflammatory response associated with reperfusion, anaesthetised rats were subject to 15 minutes of hypoxia (PAO2 30-40 mmHg) and hypotension (MABP 40 mmHg), before blood oxygen level and blood pressure were restored to normal levels. In order to examine the effects of a substance P antagonist on the inflammatory response, N-acetyl-L-tryptophan was administered intravenously at a dose of 10^−5 mol/kg after hypoxia and hypotension. The expression of mRNA for the inflammatory cytokines IL-1β, IL-6 and TNFα in brain tissue was determined by reverse transcription followed by a polymerase chain reaction (RT-PCR). mRNA levels were normalised with respect to expression of rpL32. Brain tissue samples were collected at 6 hours after injury. Levels of expression of mRNA for the inflammatory cytokines were compared between non-ischaemic animals (control), ischaemic animals administered drug vehicle alone (ischaemia), and ischaemic animals administered a substance P receptor antagonist (NK1). mRNA expression was determined for IL-1β (FIG. 5a), IL-6 (FIG. 5b) and TNFα (FIG. 5c).

IL-6 = assay: Serum IL-6 by ELISA after hypoxia and hypotension; settings: rats; 10^−5 mol/kg intravenous after hypoxia and hypotension; blood at 6 hours after the insult; FIG. 6
Procedure: In order to induce the inflammatory response associated with reperfusion, anaesthetised rats were subject to 15 minutes of hypoxia (PAO2 30-40 mmHg) and hypotension (MABP 40 mmHg), before blood oxygen level and blood pressure were restored to normal levels. In addition, serum interleukin 6 levels were also determined. Blood samples were collected at 6 hours after the insult. Changes in serum IL-6 levels were quantified using an enzyme-linked immunosorbent assay (ELISA). Serum levels of IL-6 were compared between animals that were not subject to ischaemia (control), animals subject to ischaemia followed by administration of drug vehicle alone (ischaemia), and animals subject to ischaemia followed by administration of a substance P receptor antagonist (NK1) (FIG. 6).

Compound: FC(F)(F)c1cc(CO[C@H]2CCCN[C@H]2c2ccccc2)cc(C(F)(F)F)c1 [L733,060]
- functional outcome, rotarod test of motor function ([1]; 1 mg/kg intravenous 2 h after reperfusion): improved functional outcome

Compound: CC(=O)N[C@@H](Cc1c[nH]c2ccccc12)C(=O)O [N-acetyl-L-tryptophan]
- leakage of Evan's blue dye into the brain tissue (blood brain barrier closure) (blood brain barrier [2]): reduced leakage of Evan's blue dye into the brain tissue
- functional outcome, rotarod test of motor function ([1]; 10^−5 mol/kg intravenous 2 h after reperfusion): profound improvement in functional outcome
- permeability of the blood brain barrier induced by tPA (blood brain barrier [3]; NAT 10^−5 mol/kg, tPA (Actilyse) injected to naïve (uninjured) animal): prevented the increased permeability of the blood brain barrier
- oedema at 24 h following ischaemia/reperfusion injury [4]: significantly attenuated
- expression of IL-1β mRNA in brain tissue with respect to non-ischaemic animals ([5]; FIG. 5a): no significant differences
- expression of IL-6 mRNA in brain tissue with respect to non-ischaemic animals ([5]; FIG. 5b): no significant differences
- expression of TNFα mRNA in brain tissue with respect to non-ischaemic animals ([5]; FIG. 5c): no significant differences
- increase in serum IL-6 levels (IL-6): this response was not observed

Compound: tPA: tissue plasminogen activator, a thrombolytic agent
- permeability of the blood brain barrier after tPA alone (blood brain barrier [3]; tPA (Actilyse) alone to naïve (uninjured) animal): increased permeability of the blood brain barrier
